# According to US20050032221A1, “Dominant negative variants of methionine aminopeptidase 2 (MetAP2) and clinical uses thereof” (priority 2001, published 2005):
# What was measured:
# peptide substrate (MGMM) = experiment: MetAP activity assay of immunopurified HA-tagged yeast MetAP2 with Met-Gly-Met-Met; assay type: biochemical; details: immunopurified HA-tagged enzyme from map1Δ
# Method: […]. Approximately 2 μg of purified wild-type MetAP2 (WT) and MetAP2 (H174A) was separated on a 10% SDS-PAGE gel and visualized with coomassie blue staining. Specific activity for the wild-type MetAP2 was 11±0.5 U/mg.
# The purification of HA-tagged wild-type and mutant yeast MetAP2 from a yeast map1Δ strain (Klinkenberg et al., Arch. Biochem. Biophys. 347:193-200, 1997) was performed as previously described (Li and Chang, 1995) with slight modifications. A 1-liter yeast culture was grown aerobically at 30° C. in SG/Leu^− medium. Cells were collected at an OD600˜1-2 by centrifugation at 1500×g for 5 min. The pellet was rinsed with buffer XL (10 mM Hepes, pH 7.4; 1.5 mM MgCl2, 10% Glycerol [v/v]) plus 100 mM NaCl and fresh protease inhibitors (1 μg/ml aprotinin, 1 μg/ml leupeptin, 0.7 μg/ml pepstatin A, 1 mM phenylmethylsulfonyl fluoride). Cells were disrupted by vortexing (5 cycles of 1 min vortexing, 1 min on ice) with 0.5-mm acid-washed glass beads (Biospec Products, Inc.,). The lysate was then cleared at 10,000×g for 20 min at 4° C. Cleared lysate was applied to a Protein-Sepharose G column (Pharmacia) previously rinsed and pre-equilibrated with buffer XL and an anti-hemagglutinin epitope ([…]; SEQ ID NO:23) monoclonal antibody (BabCO). After loading, the column was washed with buffer XL until OD280<0.01. […]
# yeast map1Δ strain = experiment: Yeast growth assay, map1Δ, expression under GAL1 promoter; assay type: cell-based, yeast (S. cerevisiae)
# Method: A haploid yeast map1Δ strain was transformed to leucine prototrophy with p425GAL1/MAP2 wild-type (WT), p425GAL1/map2 (H174A), or p425GAL1 vector alone (V). Each strain was grown to mid-logarithmic phase at 30° C. in minimal synthetic raffinose medium lacking leucine. Approximately 2×10^5 cells (ABS600) were then streaked onto minimal synthetic plates lacking leucine and supplemented with (A) glucose or (B) galactose. Plates were incubated for 4 days at 30° C.
# A haploid yeast map1Δ strain was transformed to leucine prototrophy with p425GAL1/MAP2 wild-type (WT), p425GAL1/map2 ([…]), p425GAL1/map2 (Δ2-57/H174A) or p425GAL1 vector alone (V). Each strain was grown to mid-logarithmic phase at 30° C. in minimal synthetic raffinose medium lacking leucine. […]
# For relative growth comparison, strains were grown to mid-logarithmic phase in 5 ml of 2% raffinose minimal media lacking leucine and ˜2×10^5 cells (ABS600) were streaked onto SD/Leu^− or SG/Leu^− plates, then incubated for 4 days at 30° C. For quantitative comparison, a growth curve was obtained (FIG. 4). […] The ABS600 of each 1 mL culture was measured and diluted to an ABS600 of 0.2 in 5 mL of SG/Leu^−. Each 5 mL culture was then grown aerobically at 30° C. and the ABS600 was measured in triplicate at one-hour intervals.
# Chain of peptide substrate (MGMM) (P38174 whole entry H174A): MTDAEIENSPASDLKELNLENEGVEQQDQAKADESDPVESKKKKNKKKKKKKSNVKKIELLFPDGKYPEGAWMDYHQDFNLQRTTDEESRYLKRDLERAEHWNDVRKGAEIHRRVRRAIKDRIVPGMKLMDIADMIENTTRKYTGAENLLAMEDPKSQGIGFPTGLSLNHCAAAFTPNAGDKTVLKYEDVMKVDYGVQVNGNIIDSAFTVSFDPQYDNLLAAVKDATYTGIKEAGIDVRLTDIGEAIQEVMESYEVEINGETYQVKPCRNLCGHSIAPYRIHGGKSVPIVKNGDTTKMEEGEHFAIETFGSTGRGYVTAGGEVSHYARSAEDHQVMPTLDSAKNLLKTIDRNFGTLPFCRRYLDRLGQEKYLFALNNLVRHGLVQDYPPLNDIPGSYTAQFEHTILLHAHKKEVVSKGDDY
substance,measurement,setting,value
"MetAP2 (H174A): variant yeast MetAP2 with His174 replaced by alanine, N-terminal HA tag; dominant negative (SEQ ID NO:8)",activity against a peptide substrate (MGMM) in vitro,peptide substrate (MGMM),no detectable activity
same,doubling time,"yeast map1Δ strain; SG/Leu- medium, 30° C.",9.3 ± 0.6 h
same,colony size / growth relative to map1Δ with vector alone,"yeast map1Δ strain; galactose plates, 4 days at 30° C.",smaller colonies
